Laboratory results from patent US5008245A (University of Kentucky Research Foundation, priority 1988, dated 1991).
Read-outs that look alike come from different tables or passages of the source.

What was measured:
Assay type in all cases: biochemical
[1] = biological target: T1, HLE (human leukocyte elastase) (Homo sapiens, UniProt P08246); assay: Inhibition of HLE by desmosine-like peptidyl carbamates, steady state kinetics (Dixon plot, Lineweaver-Burk slope replot)
T1 sequence (P08246 30-267): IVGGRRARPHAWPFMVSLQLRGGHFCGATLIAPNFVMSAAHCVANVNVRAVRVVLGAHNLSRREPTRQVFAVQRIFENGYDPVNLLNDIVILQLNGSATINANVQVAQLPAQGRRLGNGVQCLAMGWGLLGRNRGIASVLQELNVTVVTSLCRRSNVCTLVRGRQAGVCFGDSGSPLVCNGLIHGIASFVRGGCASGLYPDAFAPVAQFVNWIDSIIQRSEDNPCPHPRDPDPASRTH
Procedure: ^c Lines contained linear regression analysis correlations of >0.950.
^d Ki values determined from LineweaverBurk slope replots. Slope
were obtained from lines with linear regression analysis correlations of
^a Ki value was determined by steady state kinetics.
(§1) These studies are conducted to show the activities of some of the compounds of this invention as inhibitors of various forms of the enzyme elastase.

[2] = biological target: PPE (porcine pancreatic elastase) (Sus scrofa, UniProt P00772); assay: Inhibition of PPE by peptidyl carbamates; conditions: Ex. 67 table, N.I. = no inhibition at I/E = 100
Procedure: as §1
^c N.I. refers to no inhibition at I/E = 100.

enzyme elastase = assay: Inhibition of the enzyme elastase, Ki / inhibitor dissociation constants; conditions: p-nitrophenyl at P1 replaced by N-phenylthiotetrazole
[3] = Table 1, variations in P4, Dixon plot, linear regression correlations >0.950, read-out: Ki value (μM) Dixon
[4] = Table 1, variations in P4, Lineweaver-Burk slope replots, correlations >0.990, read-out: Ki value (μM) Replot
[5] = Ki values (μM) Dixon, Table 2, variations in P3, Dixon plot, linear regression correlations >0.950
[6] = Ki values (μM) Replot, Table 2, variations in P3, Lineweaver-Burk slope replots, correlations >0.990
[7] = Table 2, variations in P3, Dixon plot, linear regression correlations >0.950, read-out: Ki values (μM) Dixon
[8] = Table 2, variations in P3, Lineweaver-Burk slope replots, correlations >0.990, read-out: Ki values (μM) Replot

PPE (porcine pancreatic elastase), sequence (P00772 27-266): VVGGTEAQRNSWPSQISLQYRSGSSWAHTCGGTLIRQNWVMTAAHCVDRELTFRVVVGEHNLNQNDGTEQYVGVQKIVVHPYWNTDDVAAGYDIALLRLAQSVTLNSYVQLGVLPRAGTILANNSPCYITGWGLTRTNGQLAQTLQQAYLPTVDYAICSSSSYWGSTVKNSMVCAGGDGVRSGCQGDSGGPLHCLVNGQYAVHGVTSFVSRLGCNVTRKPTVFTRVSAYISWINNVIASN

Question: Which Ki [1, 3] does the source give for `COC(=O)CCC(=O)NC(CCCCNC(=O)OCc1ccccc1)C(=O)NC(C)C(=O)N1CCCC1C(=O)CN(C(=O)Oc1ccc([N+](=O)[O-])cc1)C(C)C` (single isomer, unassigned) [Compound 44a, p-Nitrophenyl N-[Methoxysuccinyl-(Nε -carbobenzoxy)lysylalanylprolylmethyl]-N-isopropylcarbamate] here?
Answer: The Ki was 0.56 µM.

Question: And the Ki [1, 4]?
Answer: Its Ki is 0.47 µM.

Question: What about the “Ki (μM) PPE” value ([2]; variations at P4) of the same molecule?
Answer: The value was “N.I”.

Question: How did the Ki [1, 3] turn out when `COC(=O)CCC(=O)NC(CCCCNC(=O)OCc1ccccc1)C(=O)NC(C)C(=O)N1CCCC1C(=O)CN(C(=O)Oc1ccc([N+](=O)[O-])cc1)C(C)C` (single isomer, unassigned) [Compound 44b, p-Nitrophenyl N-[Methoxysuccinyl-(Nε -carbobenzoxy)lysylalanylprolylmethyl]-N-isopropylcarbamate] was run?
Answer: Its Ki is 7.3 µM.

Question: What about the Ki [1, 4] of the same molecule?
Answer: The Ki was 7.63 µM.

Question: What about the “Ki (μM) PPE” value ([2]; variations at P4) of the same molecule?
Answer: The value was “N.I”.

Question: What does the source list for `COC(=O)CCC(=O)NC(CCCCNC(=O)c1ccccc1)C(=O)NC(C)C(=O)N1CCCC1C(=O)CN(C(=O)Oc1ccc([N+](=O)[O-])cc1)C(C)C` (single isomer, unassigned) [Compound 45a, p-Nitrophenyl N-[Methoxysuccinyl-(Nε -benzoyl)lysylalanylprolylmethyl]-N-isopropylcarbamate]?
Answer: Ki [1, 3]: 0.73 µM; Ki [1, 4]: 0.38 µM; Ki (μM) PPE ([2]; variations at P4): N.I.

Question: How did the Ki [1, 3] turn out when `COC(=O)CCC(=O)NC(CCCCNC(=O)c1ccccc1)C(=O)NC(C)C(=O)N1CCCC1C(=O)CN(C(=O)Oc1ccc([N+](=O)[O-])cc1)C(C)C` (single isomer, unassigned) [Compound 45b, p-Nitrophenyl N-[Methoxysuccinyl-(Nε -benzoyl)lysylalanylprolylmethyl]-N-isopropylcarbamate] was run?
Answer: The Ki was 3.7 µM.

Question: And the Ki [1, 4]?
Answer: The Ki was 3.13 µM.

Question: What about the “Ki (μM) PPE” value ([2]; variations at P4) of the same molecule?
Answer: The value was “N.I”.

Question: For `COC(=O)CCC(=O)NC(CCCNC(=O)OCc1ccccc1)C(=O)NC(C)C(=O)N1CCCC1C(=O)CN(C(=O)Oc1ccc([N+](=O)[O-])cc1)C(C)C` (single isomer, unassigned) [Compound 46a, p-Nitrophenyl N-[Methoxysuccinyl-(Nδ -carbobenzoxy)ornithylalanylprolylmethyl]-N-isopropylcarbamate], which Ki ([1]; Ex. 67 table, variations at P4, read-out: Ki (μM) HLE) is on record?
Answer: The Ki was 0.65 µM.

Question: What about the Ki [1, 3] of the same molecule?
Answer: Its Ki is 0.43 µM.

Question: What about the Ki [1, 4] of the same molecule?
Answer: The Ki was 0.36 µM.

Question: What about the “Ki (μM) PPE” value ([2]; variations at P4) of the same molecule?
Answer: The value was “N.I”.

Question: With `COC(=O)CCC(=O)NC(CCCNC(=O)OCc1ccccc1)C(=O)NC(C)C(=O)N1CCCC1C(=O)CN(C(=O)Oc1ccc([N+](=O)[O-])cc1)C(C)C` (single isomer, unassigned) [Compound 46b, p-Nitrophenyl N-[Methoxysuccinyl-(Nδ -carbobenzoxy)ornithylalanylprolylmethyl]-N-isopropylcarbamate] as the molecule, how does the Ki [1, 3] read?
Answer: The Ki was 8.8 µM.

Question: What about the Ki [1, 4] of the same molecule?
Answer: Its Ki is 7.95 µM.

Question: And the “Ki (μM) PPE” value ([2]; variations at P4)?
Answer: The value was “N.I”.

Question: For `COC(=O)CCC(=O)N[C@@H](C)C(=O)N[C@@H](CCCCNC(=O)OCc1ccccc1)C(=O)N1CCC[C@@H]1C(=O)CN(C(=O)Oc1ccc([N+](=O)[O-])cc1)C(C)C` [Compound 48b], which Ki ([1]; Ki (μM) HLE, Ex. 67 table, variations at P3) is on record?
Answer: The Ki was 11.3 µM.

Question: And the Ki [1, 5]?
Answer: Its Ki is 20.4 µM.

Question: And the Ki [1, 6]?
Answer: Its Ki is 11.3 µM.

Question: What about the “Ki (μM) PPE” value ([2]; variations at P3) of the same molecule?
Answer: The value was “N.I”.

Question: `COC(=O)CCC(=O)N[C@@H](C)C(=O)N[C@@H](CCCCNC(=O)c1ccccc1)C(=O)N1CCC[C@H]1C(=O)CN(C(=O)Oc1ccc([N+](=O)[O-])cc1)C(C)C` [Compound 49a] was tested. Which Ki [1, 7] did it give?
Answer: Its Ki is 1.6 µM.

Question: What about the Ki [1, 8] of the same molecule?
Answer: The Ki was 0.31 µM.

Question: What about the Ki ([2]; variations at P3) of the same molecule?
Answer: The Ki was 3.8 µM.

Question: With `COC(=O)CCC(=O)N[C@@H](C)C(=O)N[C@@H](CCCCNC(=O)c1ccccc1)C(=O)N1CCC[C@H]1C(=O)CN(C(=O)Oc1ccc([N+](=O)[O-])cc1)C(C)C` [Compound 49b] as the molecule, how does the Ki [1, 7] read?
Answer: The Ki was 34 µM.

Question: And the Ki [1, 8]?
Answer: Its Ki is 38.5 µM.

Question: What about the “Ki (μM) PPE” value ([2]; variations at P3) of the same molecule?
Answer: Its value is “N.I”.

Question: How did the Ki [1, 7] turn out when `COC(=O)CCC(=O)NC(C)C(=O)NC(CCCNC(=O)OCc1ccccc1)C(=O)N1CCCC1C(=O)CN(C(=O)Oc1ccc([N+](=O)[O-])cc1)C(C)C` (stereo not shown) [Compound 50b, p-Nitrophenyl N-[Methoxysuccinylalanyl-(Nδ -carbobenzoxy)ornithylprolymethyl]-N-isopropylcarbamate] was run?
Answer: The Ki was 22.2 µM.

Question: What about the Ki [1, 8] of the same molecule?
Answer: Its Ki is 19.2 µM.

Question: What about the “Ki (μM) PPE” value ([2]; variations at P3) of the same molecule?
Answer: The value was “N.I”.

Question: What does the source list for `COC(=O)CCC(=O)NC(C)C(=O)NC(CCCNC(=O)c1ccccc1)C(=O)N1CCCC1C(=O)CN(C(=O)Oc1ccc([N+](=O)[O-])cc1)C(C)C` (stereo not shown) [Compound 51a]?
Answer: Ki [1, 7]: 5.33 µM; Ki [1, 8]: 2.14 µM; Ki ([2]; variations at P3): 14.3 µM

Question: `COC(=O)CCC(=O)N[C@@H](C)C(=O)N[C@@H](CCCNC(=O)c1ccccc1)C(=O)N1CCC[C@@H]1C(=O)CN(C(=O)Oc1ccc([N+](=O)[O-])cc1)C(C)C` [Compound 51b] was tested. Which Ki [1, 5] did it give?
Answer: The Ki was 104 µM.

Question: And the Ki [1, 6]?
Answer: Its Ki is 100 µM.

Question: And the “Ki (μM) PPE” value ([2]; variations at P3)?
Answer: The value was “N.I”.

Question: Which Ki (enzyme elastase) does the source give for `COC(=O)CCC(=O)NC(C)C(=O)NC(CCCCNC(=O)OCc1ccccc1)C(=O)N1CCCC1C(=O)CN(C(=O)Sc1nnnn1-c1ccccc1)C(C)C` (stereo not drawn) [PC5, S-(1-Phenyl-5-tetrazoyl)-N-[methoxysuccinyl-alanyl-(N6-carbonbenzoxyl)lysylprolylmethyl]-N-isopropyl thiocarbamate] here?
Answer: Its Ki is 0.02 µM.

Question: How did the Ki (enzyme elastase) turn out when `COC(=O)CCC(=O)NC(CCCNC(=O)OCc1ccccc1)C(=O)NC(C)C(=O)N1CCCC1C(=O)CN(C(=O)Sc1nnnn1-c1ccccc1)C(C)C` (stereo not drawn) [PC6, S-(1-Phenyl-5-tetrazoyl)-N-[methoxysuccinyl-Nδ-carbobenzoxyl) ornithyl alanyl prolyl methyl]-N-isopropyl thiocarbamate] was run?
Answer: The Ki was 0.003 µM.

Question: “p-Nitrophenyl N-[Methoxysuccinyl-(Nδ -benzoyl)ornithylalanylprolylmethyl]-N-isopropylcarbamate [Compound 47a]” was tested. Which Ki [1, 3] did it give?
Answer: Its Ki is 0.65 µM.

Question: And the Ki [1, 4]?
Answer: Its Ki is 0.19 µM.

Question: What about the “Ki (μM) PPE” value ([2]; variations at P4) of the same molecule?
Answer: The value was “N.I”.

Question: Which Ki [1, 3] does the source give for “p-Nitrophenyl N-[Methoxysuccinyl-(Nδ -benzoyl)ornithylalanylprolylmethyl]-N-isopropylcarbamate [Compound 47b]” here?
Answer: The Ki was 10 µM.

Question: What about the Ki [1, 4] of the same molecule?
Answer: Its Ki is 17.7 µM.

Question: What about the “Ki (μM) PPE” value ([2]; variations at P4) of the same molecule?
Answer: Its value is “N.I”.

Question: With “p-Nitrophenyl N-[Methoxysuccinyl-(Nδ -carbobenzoxy)lysylprolylmethyl]-N-isopropylcarbamate [Compound 48a]” as the molecule, how does the Ki [1, 7] read?
Answer: Its Ki is 1.1 µM.

Question: And the Ki [1, 8]?
Answer: Its Ki is 0.22 µM.

Question: And the Ki ([2]; variations at P3)?
Answer: Its Ki is 3.4 µM.

Question: “p-Nitrophenyl N-[Methoxysuccinylalanyl-Nδ -carbobenzoxy)ornithylprolylmethyl]-N-isopropylcarbamate [Compound 50a]” was tested. Which Ki [1, 7] did it give?
Answer: The Ki was 0.75 µM.

Question: And the Ki [1, 8]?
Answer: Its Ki is 1.05 µM.

Question: And the Ki ([2]; variations at P3)?
Answer: Its Ki is 8.65 µM.
